{"source": "paper PMC6211316", "about": "“Synthesis and biological evaluation of 3-arylcoumarin derivatives as potential anti-diabetic agents” (Journal of Enzyme Inhibition and Medicinal Chemistry, 2018)", "data": [{"tested_on": "not listed separately", "assay": "DPPH free radical scavenging", "details": "mean ± SD (n = 3)", "method": "The effect of target compounds and vitamin C to scavenge the DPPH free radical was evaluated with the method described by Villano et al.[43] with slight modifications.\nTwo millilitres of different concentrations of the sample solution was added to 2.0 ml of DPPH solution (0.04 mg/mL), shaken and allowed to react at room temperature for 30 min. The absorbance value was measured at 517 nm with an ultraviolet-visible spectrophotometer. The blank reference cuvette contained absolute ethanol. All measurements were performed in triplicate. IC50 values were calculated. The percentage of DPPH radical scavenging rate of the target compound is calculated as follows: DPPH free radical scavenging effect (%)=[A0−(A1−A2)]/A0×100% where A0 is the absorbance of 2.0 ml DPPH solution +2.0 ml absolute ethanol; A1 is the absorbance of 2.0 ml DPPH solution +2.0 ml 3-arylcoumarins solution or standard; A2 is the absorbance of 2.0 ml 3-arylcoumarins solution or standard +2.0 ml absolute ethanol.", "units": {"IC50": "µM"}, "values": [{"smiles": "Cc1ccccc1-c1cc2cccc(O)c2oc1=O", "note": "[Compound 10, 8-Hydroxy-3-(2-methylphenyl)-coumarin]", "IC50": "> 1000"}, {"smiles": "Cc1ccc(-c2cc3cccc(O)c3oc2=O)cc1", "note": "[Compound 8, 8-Hydroxy-3-(4-methylphenyl)-coumarin]", "IC50": "> 1000"}, {"smiles": "O=c1oc2c(O)cccc2cc1-c1ccc(F)cc1", "note": "[Compound 19, 8-Hydroxy-3-(4-fluorophenyl)-coumarin]", "IC50": "39.1 ± 3.83"}, {"smiles": "COc1ccc(-c2cc3cc(O)ccc3oc2=O)cc1OC", "note": "[Compound 39, 6-Hydroxy-3-(3,4-dimethoxyphenyl)-coumarin]", "IC50": "> 1000"}, {"smiles": "O=c1oc2c(O)c(O)ccc2cc1-c1ccc(F)cc1", "note": "[Compound 32, 7,8-Dihydroxy-3-(4-fluorophenyl)-coumarin]", "IC50": "2.06 ± 0.07"}, {"smiles": "COc1ccc2oc(=O)c(-c3ccc(O)cc3)cc2c1", "note": "[Compound 27, 6-Methoxy-3-(4-hydroxyphenyl)-coumarin]", "IC50": "42 ± 0.97"}, {"smiles": "COc1ccc2cc(-c3ccc(O)cc3)c(=O)oc2c1", "note": "[Compound 26, 7-Methoxy-3-(4-hydroxyphenyl)-coumarin]", "IC50": "68.7 ± 13.4"}, {"smiles": "Cc1ccc(C)c(-c2cc3cccc(O)c3oc2=O)c1", "note": "[Compound 21, 8-Hydroxy-3-(2,5-dimethylphenyl)-coumarin]", "IC50": "> 1000"}, {"smiles": "COc1ccc(-c2cc3ccc(O)c(O)c3oc2=O)cc1OC", "note": "[Compound 43, 7,8-Dihydroxy-3-(3,4-dimethoxyphenyl)-coumarin]", "IC50": "4.24 ± 0.06"}]}, {"molecular_target": "T1, α-Glucosidase (Saccharomyces cerevisiae, UniProt P53341)", "T1 construct": "purchased Sigma Aldrich G0660-750UN", "T1 sequence (P53341 whole entry)": "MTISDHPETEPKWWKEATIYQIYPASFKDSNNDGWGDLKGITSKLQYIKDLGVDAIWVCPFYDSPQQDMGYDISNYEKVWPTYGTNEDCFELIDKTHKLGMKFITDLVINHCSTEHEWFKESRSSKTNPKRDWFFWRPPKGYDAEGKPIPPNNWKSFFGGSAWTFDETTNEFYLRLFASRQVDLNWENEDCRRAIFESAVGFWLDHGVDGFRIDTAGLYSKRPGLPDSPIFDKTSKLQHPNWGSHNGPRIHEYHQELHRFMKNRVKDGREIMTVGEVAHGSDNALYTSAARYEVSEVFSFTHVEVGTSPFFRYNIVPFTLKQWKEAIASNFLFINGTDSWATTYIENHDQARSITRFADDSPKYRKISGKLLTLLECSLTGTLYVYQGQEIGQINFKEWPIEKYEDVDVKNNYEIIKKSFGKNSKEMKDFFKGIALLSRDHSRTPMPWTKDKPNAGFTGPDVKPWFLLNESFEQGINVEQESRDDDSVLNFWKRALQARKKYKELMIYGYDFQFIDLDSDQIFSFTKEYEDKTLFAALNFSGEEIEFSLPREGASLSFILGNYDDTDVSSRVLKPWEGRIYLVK", "assay": "biochemical", "format": "biochemical", "details": "not given", "method": "(§1) α-Glucosidase (G0660-750UN, Sigma Aldrich) and 4-Nitrophenyl α-D-glucopyranoside (PNPG, Macklin) were dissolved in phosphate buffer (pH 6.8, 100 mM), and the test compounds were dissolved in DMSO solution. The experiment was divided into blank group, control group, sample blank group, and sample group. The reagents were loaded in 96-well plates at the dose of the table (Table 8). The solution was bathed in 37 °C water for 10 min, and then enzyme solution was added. After reaction at 37 °C for 20 min, 70 μL Na2CO3 solution ([…]) was added to stop the reaction. All experiments were run in triplicate. […] Since PNPG can produce glucose and p-Nitrophenol (PNP) under the action of α-glucosidase, PNP has the greatest absorption at 405 nm. The absorbance was determined by the microplate reader, and the inhibition rate of α-glucosidase and the IC50 value of each sample were calculated according to the formula. Inhibition rate %={[(AC−AB)−(AS−ASB)]/(AC−AB)}×100% where AC is the absorbance of control group; AB is the absorbance of blank group; AS is the absorbance of sample group; ASB is the absorbance of sample blank group.", "units": {"IC50": "µM"}, "values": [{"smiles": "Cc1ccccc1-c1cc2cccc(O)c2oc1=O", "note": "[Compound 10, 8-Hydroxy-3-(2-methylphenyl)-coumarin]", "IC50": "> 1000"}, {"smiles": "Cc1ccc(-c2cc3cccc(O)c3oc2=O)cc1", "note": "[Compound 8, 8-Hydroxy-3-(4-methylphenyl)-coumarin]", "IC50": "69.6 ± 5.32"}, {"smiles": "O=c1oc2c(O)cccc2cc1-c1ccc(F)cc1", "note": "[Compound 19, 8-Hydroxy-3-(4-fluorophenyl)-coumarin]", "IC50": "> 1000"}, {"smiles": "COc1ccc(-c2cc3cc(O)ccc3oc2=O)cc1OC", "note": "[Compound 39, 6-Hydroxy-3-(3,4-dimethoxyphenyl)-coumarin]", "IC50": "13.1 ± 0.57"}, {"smiles": "O=c1oc2c(O)c(O)ccc2cc1-c1ccc(F)cc1", "note": "[Compound 32, 7,8-Dihydroxy-3-(4-fluorophenyl)-coumarin]", "IC50": "> 1000"}, {"smiles": "COc1ccc2oc(=O)c(-c3ccc(O)cc3)cc2c1", "note": "[Compound 27, 6-Methoxy-3-(4-hydroxyphenyl)-coumarin]", "IC50": "70.3 ± 2.95"}, {"smiles": "COc1ccc2cc(-c3ccc(O)cc3)c(=O)oc2c1", "note": "[Compound 26, 7-Methoxy-3-(4-hydroxyphenyl)-coumarin]", "IC50": "> 1000"}, {"smiles": "Cc1ccc(C)c(-c2cc3cccc(O)c3oc2=O)c1", "note": "[Compound 21, 8-Hydroxy-3-(2,5-dimethylphenyl)-coumarin]", "IC50": "> 1000"}, {"smiles": "COc1ccc(-c2cc3ccc(O)c(O)c3oc2=O)cc1OC", "note": "[Compound 43, 7,8-Dihydroxy-3-(3,4-dimethoxyphenyl)-coumarin]", "IC50": "> 1000"}]}, {"molecular_target": "T1, α-Glucosidase", "assay": "biochemical", "format": "biochemical", "details": "in vitro", "method": "as §1", "values": [{"smiles": "COc1ccc(-c2cc3cc(O)ccc3oc2=O)cc1OC", "note": "[Compound 39, 6-Hydroxy-3-(3,4-dimethoxyphenyl)-coumarin]", "α-glucosidase inhibitory activity (in words)": "moderate to excellent inhibitory activity"}]}, {"tested_on": "not listed separately", "assay": "hydroxyl radical scavenging", "details": "mean ± SD (n = 3), read-out: OH IC50 Value", "method": "The ability of the target compounds and vitamin C to scavenge the hydroxyl radical was evaluated with method described by Ismaili et al.[29] with slight modifications. In test tube, 1.0 ml H2O2 solution (0.03%), 1.0 ml FeSO4 solution (2 mmol.L^−1), 1.0 ml salicylic acid solution (10 mmol.L^−1) and 1.0 ml of 3-arylcoumarins and standard water solution with different concentration (0.4–2.0 mg/mL) were mixed. Finally, 1.0 ml H2O2 solution (0.03%) was added to this mixture to start the reaction. Solutions were kept at 37 °C. After 30 min, the absorbance was measured at 510 nm against the reagent blank, where the distilled water was substituted for the H2O2 solution. The percentage of OH scavenging by target compounds and vitamin C was calculated the following equation: OH scavenging effect (%)=[A0−(A1−A2)]/A0×100% where A0 is the absorbance of 1.0 ml distilled water +1.0 ml H2O2 + 1.0 ml FeSO4 + 1.0 ml salicylic acid +1.0 ml H2O2; A1 is the absorbance of 1.0 ml 3-arylcoumarins or standard +1.0 ml H2O2 + 1.0 ml FeSO4 + 1.0 ml salicylic acid +1.0 ml H2O2; A2 is the absorbance of 1.0 ml 3-arylcoumarins or standard +1.0 ml H2O2 + 1.0 ml FeSO4 + 1.0 ml absolute absolute ethanol +1.0 ml H2O2.", "units": {"IC50": "µM"}, "values": [{"smiles": "Cc1ccccc1-c1cc2cccc(O)c2oc1=O", "note": "[Compound 10, 8-Hydroxy-3-(2-methylphenyl)-coumarin]", "IC50": "> 1000"}, {"smiles": "Cc1ccc(-c2cc3cccc(O)c3oc2=O)cc1", "note": "[Compound 8, 8-Hydroxy-3-(4-methylphenyl)-coumarin]", "IC50": "> 1000"}, {"smiles": "O=c1oc2c(O)cccc2cc1-c1ccc(F)cc1", "note": "[Compound 19, 8-Hydroxy-3-(4-fluorophenyl)-coumarin]", "IC50": "> 1000"}, {"smiles": "COc1ccc(-c2cc3cc(O)ccc3oc2=O)cc1OC", "note": "[Compound 39, 6-Hydroxy-3-(3,4-dimethoxyphenyl)-coumarin]", "IC50": "> 1000"}, {"smiles": "O=c1oc2c(O)c(O)ccc2cc1-c1ccc(F)cc1", "note": "[Compound 32, 7,8-Dihydroxy-3-(4-fluorophenyl)-coumarin]", "IC50": "970 ± 70.9"}, {"smiles": "COc1ccc2oc(=O)c(-c3ccc(O)cc3)cc2c1", "note": "[Compound 27, 6-Methoxy-3-(4-hydroxyphenyl)-coumarin]", "IC50": "> 1000"}, {"smiles": "COc1ccc2cc(-c3ccc(O)cc3)c(=O)oc2c1", "note": "[Compound 26, 7-Methoxy-3-(4-hydroxyphenyl)-coumarin]", "IC50": "> 1000"}, {"smiles": "Cc1ccc(C)c(-c2cc3cccc(O)c3oc2=O)c1", "note": "[Compound 21, 8-Hydroxy-3-(2,5-dimethylphenyl)-coumarin]", "IC50": "> 1000"}, {"smiles": "COc1ccc(-c2cc3ccc(O)c(O)c3oc2=O)cc1OC", "note": "[Compound 43, 7,8-Dihydroxy-3-(3,4-dimethoxyphenyl)-coumarin]", "IC50": "887 ± 15.8"}]}, {"tested_on": "AGEs formation", "assay": "In vitro inhibitory activity of AGEs formation (bovine serum albumin/glucose)", "format": "biochemical", "details": "mean ± SD (n = 3)", "method": "To prepare the AGEs reaction solution, 10 mg/mL of bovine serum albumin in 50 mM PBS (pH 7.4) was added to 0.2 M glucose, and 0.02% sodium azide was added to prevent bacterial growth. The reaction mixture (3.0 ml) was then mixed with various concentrations (0.5–1000 μg/mL) of the target compounds (1.0 ml) dissolved in DMSO. After incubating at 37 °C for 14 d, the fluorescence intensity of AGE was determined by a fluorospectrophotometer (PE, USA) with excitation and emission wavelengths at 350 nm and 420 nm, respectively. All experiments were run in triplicate. Aminoguanidine hydrochloride was used as a reference compound. The inhibition rate of AGEs formation and the IC50 value of each sample were calculated according to the formula. Inhibition rate %={[(AC−AB)−(AS−ASB)]/(AC−AB)}×100% where AC is the absorbance of control group(1.0 ml glucose +1.0 ml bovine serum albumin +1.0 ml sodium azide +1.0 ml DMSO); AB is the absorbance of blank group(1.0 ml PBS +1.0 ml bovine serum albumin +1.0 ml sodium azide +1.0 ml DMSO); AS is the absorbance of sample group (1.0 ml glucose +1.0 ml bovine serum albumin +1.0 ml sodium azide +1.0 ml target compound solution or Aminoguanidine hydrochloride solution); ASB is the absorbance of sample blank group (1.0 ml PBS +1.0 ml bovine serum albumin +1.0 ml sodium azide +1.0 ml target compound solution or Aminoguanidine hydrochloride solution).", "units": {"IC50": "µM"}, "values": [{"smiles": "Cc1ccccc1-c1cc2cccc(O)c2oc1=O", "note": "[Compound 10, 8-Hydroxy-3-(2-methylphenyl)-coumarin]", "IC50": "> 1000"}, {"smiles": "Cc1ccc(-c2cc3cccc(O)c3oc2=O)cc1", "note": "[Compound 8, 8-Hydroxy-3-(4-methylphenyl)-coumarin]", "IC50": "31.9 ± 2.02"}, {"smiles": "O=c1oc2c(O)cccc2cc1-c1ccc(F)cc1", "note": "[Compound 19, 8-Hydroxy-3-(4-fluorophenyl)-coumarin]", "IC50": "34.7 ± 1.84"}, {"smiles": "COc1ccc(-c2cc3cc(O)ccc3oc2=O)cc1OC", "note": "[Compound 39, 6-Hydroxy-3-(3,4-dimethoxyphenyl)-coumarin]", "IC50": "8.02 ± 0.2"}, {"smiles": "O=c1oc2c(O)c(O)ccc2cc1-c1ccc(F)cc1", "note": "[Compound 32, 7,8-Dihydroxy-3-(4-fluorophenyl)-coumarin]", "IC50": "33.5 ± 1.99"}, {"smiles": "COc1ccc2oc(=O)c(-c3ccc(O)cc3)cc2c1", "note": "[Compound 27, 6-Methoxy-3-(4-hydroxyphenyl)-coumarin]", "IC50": "64.5 ± 0.78"}, {"smiles": "COc1ccc2cc(-c3ccc(O)cc3)c(=O)oc2c1", "note": "[Compound 26, 7-Methoxy-3-(4-hydroxyphenyl)-coumarin]", "IC50": "65.9 ± 1.34"}, {"smiles": "Cc1ccc(C)c(-c2cc3cccc(O)c3oc2=O)c1", "note": "[Compound 21, 8-Hydroxy-3-(2,5-dimethylphenyl)-coumarin]", "IC50": "213 ± 4.77"}, {"smiles": "COc1ccc(-c2cc3ccc(O)c(O)c3oc2=O)cc1OC", "note": "[Compound 43, 7,8-Dihydroxy-3-(3,4-dimethoxyphenyl)-coumarin]", "IC50": "25.2 ± 1.72"}]}, {"tested_on": "not given", "assay": "not given", "details": "not given", "units": {"melting point": "°C"}, "values": [{"smiles": "Cc1ccccc1-c1cc2cccc(O)c2oc1=O", "note": "[Compound 10, 8-Hydroxy-3-(2-methylphenyl)-coumarin]", "melting point": "212.7 to 213"}, {"smiles": "Cc1ccc(-c2cc3cccc(O)c3oc2=O)cc1", "note": "[Compound 8, 8-Hydroxy-3-(4-methylphenyl)-coumarin]", "melting point": "211.7 to 212.5"}, {"smiles": "O=c1oc2c(O)cccc2cc1-c1ccc(F)cc1", "note": "[Compound 19, 8-Hydroxy-3-(4-fluorophenyl)-coumarin]", "melting point": "201.3 to 203.1"}, {"smiles": "COc1ccc(-c2cc3cc(O)ccc3oc2=O)cc1OC", "note": "[Compound 39, 6-Hydroxy-3-(3,4-dimethoxyphenyl)-coumarin]", "melting point": "216.1 to 217.9"}, {"smiles": "O=c1oc2c(O)c(O)ccc2cc1-c1ccc(F)cc1", "note": "[Compound 32, 7,8-Dihydroxy-3-(4-fluorophenyl)-coumarin]", "melting point": "259.8 to 260.7"}, {"smiles": "COc1ccc2oc(=O)c(-c3ccc(O)cc3)cc2c1", "note": "[Compound 27, 6-Methoxy-3-(4-hydroxyphenyl)-coumarin]", "melting point": "195.6 to 197.2"}, {"smiles": "COc1ccc2cc(-c3ccc(O)cc3)c(=O)oc2c1", "note": "[Compound 26, 7-Methoxy-3-(4-hydroxyphenyl)-coumarin]", "melting point": "209 to 209.8"}, {"smiles": "Cc1ccc(C)c(-c2cc3cccc(O)c3oc2=O)c1", "note": "[Compound 21, 8-Hydroxy-3-(2,5-dimethylphenyl)-coumarin]", "melting point": "183.2 to 187.4"}, {"smiles": "COc1ccc(-c2cc3ccc(O)c(O)c3oc2=O)cc1OC", "note": "[Compound 43, 7,8-Dihydroxy-3-(3,4-dimethoxyphenyl)-coumarin]", "melting point": "290.5 to 291.9"}]}]}
